For series [1], the target named is T1, recombinant Pv PMV (Plasmodium vivax, UniProt A5K302).
T1 construct: made in house
Description: PMV FRET protease assay. The series is classed as biochemical. The protocol:
(§1) FRET Protease Assays. FRET protease assays were performed as previously described.[19, 20, 27, 28] Briefly, ten‐point 1 : 3‐fold dilution series of the compounds were prepared in 384‐well black low volume assay plates (Greiner) using an Echo555 (Labcyte). 10 mM compound stocks were transferred into assay plates such that the starting concentration was 90 μM (Pv PMV assays), 11.25 μM (renin, cathepsin D and BACE‐1 assays) or 100 nM and 10 μM (Pf PMX and Pf PMIX assays). All wells were backfilled to 200 nL DMSO such that the DMSO concentration remained constant across the assay plates (1 % final). All compound potency assays were conducted in 20 μL total volume. For each assay, 10 μL of recombinant enzymes in respective assay buffers (Table S2) were dispensed into compound containing assay plates using a Multidrop‐Combi dispenser and allowed to incubate for 15 min. Recombinant Pf PMX, Pf PMIX and Pv PMV were expressed as previously described,[23, 27, 28] and recombinant human aspartyl proteases were purchased commercially. 10 μL of the fluorogenic peptide substrates incubated at 37 °C for the duration and conditions noted in Table S2. Samples were excited at 340 nm and fluorescence emission measured at 492 nm using an Envision fluorescence plate reader (Perkin‐Elmer). The 0 % inhibition control contained DMSO alone (1 % final) and the 100 % inhibition control was in the absence of enzyme. Half‐maximal inhibitory concentration (IC50) values were calculated by GraphPad Prism (8.0.2) software using a nonlinear regression four‐parameter fit analysis using a sigmoidal dose response (variable slope).
(§2) Table S2 . P rotease FRET assay conditions.
(§3) PMX as sa y PMIX PM V assay Renin assay Cathepsin D assay BA CE-1 assay E nzy me prot e as e 0.25 nM pro te a se 6 nM prot e as e q ua nti ty 0.1 nM pro t ea se 1.5 nM pro t ea se 2.5 nM pro t ea se 3 nM (Pro te os #R-001) ( Athe ns Re sea rc h (Sigma #S4195) […]
(§4) 25mM so di um acetate, 100 mM 25 mM M E S, 25 m M 50 mM Tr is, 100 mM 100 mM so di u m 20 mM so dium Buffer acetate, 0.005% sodium chloride and Tris-HCl, 0.01% N aC l, 0. 1% Bri j-35, acetate 0.02% scetate, 0.05% […]
(§5) Sub str at e DABCYL- ( DA BC YL ) - DABCYL- DABCYL-(γ- Ab u) - E[E(EDANS)]KPIL […]

For series [2], the target named is T2, BACE‐1 (Homo sapiens, UniProt P56817).
T2 construct: purchased Sigma S4195
T2 sequence (P56817 46-460 limits assumed): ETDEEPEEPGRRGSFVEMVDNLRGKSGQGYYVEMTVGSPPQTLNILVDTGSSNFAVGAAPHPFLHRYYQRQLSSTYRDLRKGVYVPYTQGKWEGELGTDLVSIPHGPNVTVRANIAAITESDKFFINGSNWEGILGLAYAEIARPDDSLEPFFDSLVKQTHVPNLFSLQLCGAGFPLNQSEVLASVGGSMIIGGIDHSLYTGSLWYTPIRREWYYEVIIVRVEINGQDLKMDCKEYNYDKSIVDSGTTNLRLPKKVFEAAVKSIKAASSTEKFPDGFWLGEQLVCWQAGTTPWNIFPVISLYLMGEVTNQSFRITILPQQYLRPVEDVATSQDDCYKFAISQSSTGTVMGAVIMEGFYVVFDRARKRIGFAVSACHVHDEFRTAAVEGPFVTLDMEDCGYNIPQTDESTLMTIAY
Description: BACE-1 FRET protease assay. Type of series: biochemical. To be noted: mean and SD of 4 replicate FRET experiments, 37 °C; highest concentration tested 11 μM.

For series [3], the target named is T3, cathepsin D (Homo sapiens, UniProt P07339).
T3 construct: purchased Athens Research 16-12-030104
T3 sequence (P07339 65-412): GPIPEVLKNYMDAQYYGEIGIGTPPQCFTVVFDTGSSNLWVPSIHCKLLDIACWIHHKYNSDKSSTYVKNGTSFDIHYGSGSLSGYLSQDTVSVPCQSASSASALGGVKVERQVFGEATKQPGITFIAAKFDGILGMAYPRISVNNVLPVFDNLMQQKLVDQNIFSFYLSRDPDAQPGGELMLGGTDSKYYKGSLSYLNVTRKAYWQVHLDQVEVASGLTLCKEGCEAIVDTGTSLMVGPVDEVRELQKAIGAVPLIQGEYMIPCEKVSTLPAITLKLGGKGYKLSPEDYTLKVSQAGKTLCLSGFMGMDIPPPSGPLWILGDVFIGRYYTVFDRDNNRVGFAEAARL
Briefly: Cathepsin D FRET protease assay. The series is classed as biochemical. To be noted: mean and SD of 4 replicate FRET experiments, 37 °C; highest concentration tested 11 μM.

Series [4] can be described thus: in vitro. Type of series: cell-based. To be noted: human. The protocol: HepG2 Cytotoxicity Assay. HepG2 cytotoxicity assays were performed as previously described.[41] Briefly, human hepatocyte HepG2 cells were cultured in DMEM supplemented with 10 % FCS at 37 °C and 5 % CO2 in a humidified incubator. Cells were seeded at 1000 cells/well in 50 μL in 384‐well plates (Grenier) and compounds incubated in ten‐point 1 : 2‐fold dilution series for 48 h. Cytotoxicity was determined using Cell Titer‐Glo (Promega), normalized to DMSO alone controls (100 % viability) and control compound Bortezomib (0 % viability at 10 μM). CC50 values were calculated by GraphPad Prism (8.0.2) software using a nonlinear regression four‐parameter fit analysis with the sigmoidal dose response (variable slope).

For series [5], the target named is T4, renin (Homo sapiens, UniProt P00797).
T4 construct: purchased Proteos R-001
T4 sequence (P00797 67-406): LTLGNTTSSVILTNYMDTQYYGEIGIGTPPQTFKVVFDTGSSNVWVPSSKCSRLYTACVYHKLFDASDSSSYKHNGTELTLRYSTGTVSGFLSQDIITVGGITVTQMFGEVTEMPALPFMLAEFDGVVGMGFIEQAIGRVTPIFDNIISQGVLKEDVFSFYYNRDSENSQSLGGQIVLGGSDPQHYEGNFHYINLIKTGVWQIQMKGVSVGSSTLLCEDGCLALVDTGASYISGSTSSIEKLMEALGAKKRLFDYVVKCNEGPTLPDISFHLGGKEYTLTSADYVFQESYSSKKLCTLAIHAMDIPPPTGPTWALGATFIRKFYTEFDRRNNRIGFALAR
Briefly: Renin FRET protease assay. Type of series: biochemical. To be noted: mean and SD of 4 replicate FRET experiments, 37 °C; highest concentration tested 11 μM.

For series [6], the target named is T5, recombinant Pf PMX (Plasmodium falciparum, UniProt Q8IAS0).
T5 construct: made in house
T5 sequence (Q8IAS0 222-573): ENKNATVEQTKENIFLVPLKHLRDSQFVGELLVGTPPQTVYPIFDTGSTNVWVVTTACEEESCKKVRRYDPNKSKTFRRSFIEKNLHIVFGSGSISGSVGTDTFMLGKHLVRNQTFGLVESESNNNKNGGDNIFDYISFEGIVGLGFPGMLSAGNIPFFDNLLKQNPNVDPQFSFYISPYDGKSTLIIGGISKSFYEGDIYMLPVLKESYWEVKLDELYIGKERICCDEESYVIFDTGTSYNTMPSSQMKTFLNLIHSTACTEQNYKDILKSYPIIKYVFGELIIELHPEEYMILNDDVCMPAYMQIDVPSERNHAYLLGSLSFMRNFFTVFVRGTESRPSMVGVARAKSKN
Description: PMX biochemical FRET assay (Rh2N fluorogenic substrate cleavage). To be noted: 37 °C. The protocol:
as §1, with “Half‐maximal inhibitory concentration (IC50) values were calculated by GraphPad Prism (8.0.2) software using a nonlinear regression four‐parameter fit analysis using a sigmoidal dose response (variable slope).” left out
as §2, §3, §4, §5

The target of series [7] is T6, recombinant Pf PMIX (Plasmodium falciparum, UniProt Q8ILG2).
T6 construct: made in house
T6 sequence (Q8ILG2 whole entry): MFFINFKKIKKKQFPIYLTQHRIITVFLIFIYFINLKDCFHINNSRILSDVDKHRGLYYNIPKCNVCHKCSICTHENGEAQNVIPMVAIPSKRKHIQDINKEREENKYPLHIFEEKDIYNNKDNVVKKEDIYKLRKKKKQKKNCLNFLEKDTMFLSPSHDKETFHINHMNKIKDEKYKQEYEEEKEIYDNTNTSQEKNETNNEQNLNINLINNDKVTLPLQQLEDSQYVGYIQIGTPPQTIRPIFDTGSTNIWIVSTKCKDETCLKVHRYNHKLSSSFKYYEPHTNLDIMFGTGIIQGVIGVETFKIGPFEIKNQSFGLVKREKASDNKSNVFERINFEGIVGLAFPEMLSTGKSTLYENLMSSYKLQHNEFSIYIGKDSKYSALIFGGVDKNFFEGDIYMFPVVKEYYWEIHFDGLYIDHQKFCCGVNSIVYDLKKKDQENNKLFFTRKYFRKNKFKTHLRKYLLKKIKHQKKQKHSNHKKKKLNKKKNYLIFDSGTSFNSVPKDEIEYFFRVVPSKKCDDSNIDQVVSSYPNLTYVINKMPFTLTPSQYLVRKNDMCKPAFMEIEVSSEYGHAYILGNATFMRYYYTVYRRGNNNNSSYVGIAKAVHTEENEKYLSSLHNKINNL
Briefly: PMIX FRET protease assay. To be noted: mean and SD of 4 replicate FRET experiments, 37 °C. The series is classed as biochemical, P. falciparum. The protocol: as §1, §2, §3, §4, §5

Series [8] concerns P. falciparum (Pf) 3D7 parasites. Briefly: P. falciparum LDH viability assay. The series is classed as cell-based. The note with it: Plasmodium falciparum, 3D7, 72 h, LDH activity, 72 h at 37 °C; mean and SD of 3 independent experiments. The protocol: P. falciparum LDH Viability Assay. P. falciparum LDH viability assays were performed as previously described.[40] Briefly, a ten‐point 1 : 3‐fold dilution series of the compounds were pre‐dispensed in 384‐well assay plates (Grenier), and RPMI/AlbuMAX growth media inoculated with synchronized ring stage P. falciparum parasites. 10 mM compound stocks were transferred into the assay plates such that the starting concentration was 10 μM. Plates were incubated for 72 h and then frozen at −80 °C overnight. Lactate dehydrogenase (LDH) activity was quantified with APAD by measuring absorbance of NBT at 650 nm. Data were normalized to percent growth inhibition using the positive control of 0.1 % DMSO alone and the negative control of 100 nM chloroquine. Half‐maximal effective concentration (EC50) values were calculated by GraphPad Prism (8.0.2) software using a nonlinear regression four‐parameter fit analysis using a sigmoidal dose response (variable slope).

Series [9] has as its system PMIX. The arrangement: method as in PMID 29074775, PMID 32109369, PMID 23260352, PMID 29519896. The note with it: Figure 1, described in literature; cited from earlier work.
The subject of series [10] is SERA5 processing by SUB1, indicative of upstream activity by PMX. Description: SERA5 processing inhibition assay in parasites (western blot, anti-SERA5). The series is classed as cell-based, P. falciparum. The note with it: WM382 (1) at 2.5 nM. The source says: PMX and PMIX ligand cleavage in P. falciparum parasites. It was next determined whether 38 could inhibit PMX and PMIX processing of known invasion and egress ligands in P. falciparum parasites. […] SERA5 is not a direct substrate of PMX, but is processed by SUB1 which itself is activated by PMX. The degree of downstream processing of SERA5 by SUB1 is indicative of PMX activity.
(§6) In this experiment, synchronized late trophozoite/early schizont stage parasites, expressing HA‐tagged ASP, were incubated with 38 (10 μM), the positive control WM382 (1) (2.5 nM) (a dual potent inhibitor of PMIX and PMX) and the DMSO vehicle control. Parasites from each treatment condition were then lysed and the processing of the known PMX and PMIX substrates were detected by western blot as a corollary of protease activity.
P. falciparum ASP and SERA5 Processing Inhibition Assay. P. falciparum substrate processing inhibition assays were performed as previously described.[28] Synchronized ring stage cultures were treated with test compounds 38 (10 μM) and WM382 (2.5 nM)[28] or DMSO as a vehicle control. […] HA‐tagged apical sushi protein (ASP) was detected in the merozoite fraction with anti‐HA mAb and SERA5 was detected in the supernatant fraction with an anti‐SERA5 polyclonal Ab. […]
On the technique in general: A western blot detects proteins with antibodies after separation by electrophoresis.

In series [11] the test system is PMIX processing of the ASP protein. Briefly: ASP processing inhibition assay in parasites (western blot, anti-HA). The series is classed as cell-based, P. falciparum. The note with it: WM382 (1) at 2.5 nM, HA‐tagged ASP parasites. The protocol:
as §6
P. falciparum ASP and SERA5 Processing Inhibition Assay. P. falciparum substrate processing inhibition assays were performed as previously described.[28] Synchronized ring stage cultures were treated with test compounds 38 (10 μM) and WM382 (2.5 nM)[28] or DMSO as a vehicle control. The parasite cultures were grown to the schizont stage before passing over LD magnetic columns (Miltenyi Biotech) to remove uninfected erythrocytes. Parasites were eluted from columns with RPMI 1640 (in‐house) culture medium to which the appropriate inhibitor at the same concentration had been added. Eluted parasites were adjusted to 5×10^6 schizonts/mL and 150 μL added per well of a 96‐well flat‐bottomed culture plate. […] HA‐tagged apical sushi protein (ASP) was detected in the merozoite fraction with anti‐HA mAb and SERA5 was detected in the supernatant fraction with an anti‐SERA5 polyclonal Ab. […]

The subject of series [12] is Pf 3D7. The arrangement: method as in PMID 29074775, PMID 32109369, PMID 23260352, PMID 29519896. The note with it: Figure 1, described in literature; cited from earlier work.
Series [13] relates to PMX. The note with it: Figure 1, described in literature; cited from earlier work.
The mark [14] stands for this setting: recombinant PMX, fluorogenic substrate (Rh2N) cleavage, 4 h, mean and SD of 4 replicates (Tables 1, 2).

Structures can show the parent of a compound that is named as a salt. Some results are limits rather than exact numbers.

T1 sequence (A5K302 35-536): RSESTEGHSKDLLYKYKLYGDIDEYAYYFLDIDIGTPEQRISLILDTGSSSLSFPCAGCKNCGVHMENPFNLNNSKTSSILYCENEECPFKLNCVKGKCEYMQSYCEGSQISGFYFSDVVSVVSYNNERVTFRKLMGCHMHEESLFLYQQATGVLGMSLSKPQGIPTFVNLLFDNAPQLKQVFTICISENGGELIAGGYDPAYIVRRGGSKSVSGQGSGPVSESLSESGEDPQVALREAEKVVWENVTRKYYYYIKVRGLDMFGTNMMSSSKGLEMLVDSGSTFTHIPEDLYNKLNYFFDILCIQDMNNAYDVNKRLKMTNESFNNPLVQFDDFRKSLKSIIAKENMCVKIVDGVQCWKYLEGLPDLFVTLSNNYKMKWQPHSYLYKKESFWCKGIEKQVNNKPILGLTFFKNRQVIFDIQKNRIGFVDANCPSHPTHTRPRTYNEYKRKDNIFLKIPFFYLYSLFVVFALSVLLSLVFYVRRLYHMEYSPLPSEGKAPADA

In the case of `CCC(C)C(NC(C)=O)C(=O)NC(CO)C(=O)NC(Cc1ccccc1)C(O)CNC(C)c1ccccc1` (stereo not shown) [Compd 26, Ac‐Ile‐Ser‐Phe‐HEA‐Bn(CH3)⋅TFA], the half-inhibitory concentration (IC50) in series [1] is over 90000 nM; in series [2] it was 2900 nM; in series [3] it was over 11000 nM; in series [5], over 11000 nM; in [6] (Table 3, mean and SD of 4 replicate FRET experiments), 10 nM; in [6] (setting [14]), 10 nM. Also, in [7], the 50% inhibitory concentration (IC50) stood at 2700 nM. This molecule yielded a 50% cytotoxic concentration (CC50) at 48 h in [4] of over 40000 nM. In series [8], this molecule came in with an EC50 of 190 nM.

Consider `CCC(C)[C@H](NC(=O)OCc1ccccc1)C(=O)N[C@@H](Cc1ccccc1)[C@H](O)CN[C@H](C)c1ccccc1` (stereo partly shown) [Compd 37, Cbz‐Ile‐Phe‐HEA‐Bn(CH3)], for which the concentration for half-maximal inhibition (IC50) in series [1] was over 90000 nM; in series [2], over 11000 nM; in [3], 200 nM; in [5], over 11000 nM; in [6] (setting [14]) it was 20 nM; in series [7], 14700 nM. The molecule also displayed a CC50 at 48 h in series [4] of over 40000 nM. Besides, in series [8], the EC50 came out at 140 nM.

Turning to `CCC1(CC)CC(=O)N([C@@H]2CCOc3ccc(C(=O)N[C@H]4CC(C)(C)Oc5ccccc54)cc32)C(=N)N1` [WM382], the results for the 50% inhibitory concentration (IC50) in series [9] and in [13] were 0.4 nM and 0.04 nM, respectively. In series [10], the “SERA5 processing (western blot)” value is “complete inhibition of SERA5 processing”. Also, in series [11], the “ASP processing by PMIX (western blot)” value is “inhibition of ASP processing”. In addition, in [12], the EC50 was 0.6 nM.

What is called IC50 is the concentration that inhibits the measured activity by half. As a reminder, the CC50 is the concentration that lowers cell viability or growth by half. As a reminder, the EC50 is the concentration at which the effect is half-maximal.

The values are drawn from PMC9804387, “Substrate Peptidomimetic Inhibitors of P. falciparum Plasmepsin X with Potent Antimalarial Activity” (Chemmedchem, 2022).
